{"source": "patent US20050004029A1", "about": "“Methods and compositions for treating vascular leak using hepatocyte growth factor” (priority 2001, published 2005)", "key": {"PKCα": {"test_system": "PKCα", "test": "PKCα activation (phospho-PKC immunoreactivity, membrane translocation)", "format": "cell-based, human", "conditions": "after HGF", "experimental": "Endothelial cell monolayers grown to confluence in 12-well plates and challenged with HGF were lysed with 100 μl of 2×SDS sample buffer, and cell lysates were transferred into microcentrifuge tubes and boiled for 5 min. After a brief spin, proteins from 10 μl cell lysates were separated on 12% SDS-PAGE and transferred to nitrocellulose (Schleicher & Schuell, Keene, N.H.) (30V, 18 h). After blocking with PBST (PBS with 0.1% Tween 20) containing 5% non-fat milk for 1 hr, nitrocellulose blots were reacted with primary antibodies diluted in PBST containing 5% BSA for 1 hr, washed with PBST (3×10 min), incubated with peroxidase-conjugated secondary antibodies (goat anti-rabbit IgG, 1:10,000 dilution, Sigma; or goat anti-mouse IgG, 1:10,000 dilution, Bio-Rad Labs, Richmond, Calif.) diluted in PBST with 5% non-fat milk for 1 hr and again washed with PBST (3×10 min). Finally, immunoreactive proteins were detected using ECL. The relative intensities of the protein bands were quantified by scanning densitometry.\nEndothelial cells were fractionated into cytosolic, membrane, and nuclear/cytoskeleton fractions as described in Borbiev, T. et al. (2001) Am. J. Physiol. Lung Cell. Mol. Physiol. 280:L983-L990. […]"}, "[1]": {"test_system": "Bovine Pulmonary Artery Endothelium", "test": "Transendothelial electrical resistance (TER) across bovine pulmonary artery endothelium", "format": "cell-based", "conditions": "VEGF 100 ng/ml, Sph 1-P 1 μM, HGF 20 ng/ml", "experimental": "Bovine pulmonary artery endothelial cells were purchased from the American Type Culture Collection (ATCC®, Rockville, Md.) and utilized at passage 19-24. Cells were maintained in Medium 199 (Life Technologies, Rockville, Md.) supplemented with 20% (v/v) colostrum-free bovine serum (CFBS) (Irvine Scientific, Santa Ana, Calif.), 15 μg/ml endothelial cell growth supplement (Upstate Biotechnology, Lake Placid, N.Y.), 1% antibiotic and antimycotic, and 0.1 mM non-essential amino acids (Life Technologies). Human pulmonary artery endothelial cells were purchased from Clonetics (Walkersville, Md.), cultured in EBM-2 complete medium (Clonetics) and utilized at passage 5-10. Human alveolar epithelial cells (A549) were purchased from ATCC® and cultured in the same medium as the bovine endothelial cells, except that the endothelial cell growth supplement was omitted. All cells were maintained at 37° C. in a humidified atmosphere of 5% CO2 and 95% air.\nElectrical resistance of EC monolayers was measured using electrical cell impedance sensor system (Applied Biophysics Inc., Troy, N.Y.) as described in Garcia, J. G. N. et al. (2000) J. Appl. Physiol. 89:2333-2343. Cells grown on gold microelectrodes (10^−3 cm^2) in polycarbonate wells act as insulating particles, and the resistance across the monolayers (transendothelial electrical resistance, or TER) is measured in real time. As cells adhere on the microelectrode and intercellular cell contacts are formed or in response to agents which increase junctional integrity, the TER increases (Garcia, J. G. N. et al. (2001) J. Clin. Invest. 108:689-711). In contrast, cell retraction, rounding, or loss of adhesion is reflected by decreases in TER (Garcia, J. G. N. et al. (2000) J. Appl. Physiol. 89:2333-2343). These measurements provide a highly sensitive biophysical assay that indicates the state of cell shape, focal adhesion, and endothelial barrier function (Giaever, I. and Keese, C. R. (1993) Nature 366:591-592; Tiruppathi, C. et al. (1992) Proc. Natl. Acad. Sci. USA 89:7919-7923). All electrical resistance data are presented as normalized values. Briefly, current was applied across the electrodes by a 4000 Hz AC voltage source with an amplitude of 1 V in series with a 1 MΩ resistance to approximate a constant current source (−1 μA). The small gold electrode and the larger counter electrode (1 cm^2) were connected to a phase-sensitive lock-in amplifier (5301A; EG&G Instruments Corp, Princeton, N.J.) with a built in differential preamplifier (5316A; EG&G Instruments Corp.). The in-phase and out-of-phase voltages between the electrodes were monitored in real time with the lock-in amplifier and converted to scalar measurements of transendothelial impedance, of which resistance was the primary focus. […] For some experiments, total TER was vectorially resolved into components reflecting resistance to current flow beneath the cell layer (α) and resistance to current flow between adjacent cells (Rb) as described in Garcia et al. (2000) supra utilizing the method of Giaiver and Keese which models the endothelial monolayer mathematically (Giaever, I. and Keese, C. R. (1993) Nature 366:591-592). Thus, changes in α reflect alterations in the net state of cell-matrix adhesion, whereas changes in Rb reflect alterations in the integrity of cell-cell adhesion. TER values from each microelectrode were pooled at discrete time points and plotted versus time as the mean±standard error of the mean (Garcia et al. (2000) supra)."}, "[2]": {"conditions": "vs vehicle control, ±SEM, thrombin 100 μM"}}}
{"substance": "HGF: heparin-binding glycoprotein, multifunctional cytokine, ligand of c-Met; purchased from R&D Systems", "values": [{"measurement": "time at which PKCα activation is detectable (phospho-PKC immunoreactivity)", "setting": "PKCα", "result": 15, "unit": "min"}, {"measurement": "time of PKCα translocation to the membrane fraction", "setting": "PKCα", "result": 5, "unit": "min"}, {"measurement": "TER response in words", "setting": "[1]; thrombin, 10-60 min", "result": "brisk and sustained increase in TER"}, {"measurement": "changes in TER 30 min", "setting": "[1]; [2]", "result": "+35 ± 5%"}, {"measurement": "changes in TER 60 min", "setting": "[1]; [2]", "result": "+35 ± 4%"}, {"measurement": "changes in TER 10 min", "setting": "[1]; vs vehicle control, ±SEM, thrombin 100 μM, (+) increased, (−) decreased", "result": "+25 ± 3%"}]}
